Measured values from patent publication US20250313572A1, “MACROCYCLIC MCL-1 INHIBITORS AND METHODS OF USE” (AbbVie Inc., priority 2017, published 2025).
Where two headings read alike, the source gives them in different places. Marks after values point to notes of the source that are not given here.

Tests used:
[1] = biological target: GST-MCL-1 (Homo sapiens, UniProt Q07820); experiment: TR-FRET MCL-1 binding assay (competition with probe F-Bak)
Outline: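 Displacement of F-Bak from GST-MCL-1 is detected by time-resolved FRET with a Tb-labelled anti-GST antibody, with excitation 340/35 nm and emission 520/525 and 495/510 nm, after 2 hours at room temperature. Compounds were titrated in 11 three-fold steps starting at 25 μM final, in buffer alone or in 10% HS.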

[2] = tested on: AMO-1 xenograft; experiment: AMO-1 xenograft model of multiple myeloma; assay type: in vivo, female SCID/bg mice; settings: 25 mg/kg/day, IP/QDx1
Protocol: Tumors were size matched at approximately 200 mm^3. […] Tumor volume was estimated two to three times weekly. […] Seven or eight mice were housed per cage. Food and water were available ad libitum.
Tumor growth inhibition is calculated by 100*(1−Tv/Cv) where Tv and Cv are the mean tumor volumes of the treated and control groups, respectively.

[3] = tested on: NCI-H929 human multiple myeloma tumor cell line; experiment: NCI-H929 cell viability assay (CellTiter-Glo, 24 hours); assay type: cell-based
[4] = tested on: AMO-1 human multiple myeloma tumor cell line; experiment: AMO-1 cell viability assay (CellTiter-Glo, 24 hours); assay type: cell-based
[5] = MCL-1 Binding Ki (nM, 10% HS), in the presence of 10% HS (human serum)
[6] = without HS, read-out: MCL-1 Binding Ki
[7] = Homo sapiens, NCI-H929, 24 h, read-out: H929 Viability IC50 (μM, 10% FBS), 10% FBS, 24 hours of compound treatment
[8] = Homo sapiens, AMO1, 24 h, read-out: AMO-1 Viability IC50 (μM, 10% FBS), 10% FBS, 24 hours of compound treatment

GST-MCL-1, sequence (Q07820 whole entry): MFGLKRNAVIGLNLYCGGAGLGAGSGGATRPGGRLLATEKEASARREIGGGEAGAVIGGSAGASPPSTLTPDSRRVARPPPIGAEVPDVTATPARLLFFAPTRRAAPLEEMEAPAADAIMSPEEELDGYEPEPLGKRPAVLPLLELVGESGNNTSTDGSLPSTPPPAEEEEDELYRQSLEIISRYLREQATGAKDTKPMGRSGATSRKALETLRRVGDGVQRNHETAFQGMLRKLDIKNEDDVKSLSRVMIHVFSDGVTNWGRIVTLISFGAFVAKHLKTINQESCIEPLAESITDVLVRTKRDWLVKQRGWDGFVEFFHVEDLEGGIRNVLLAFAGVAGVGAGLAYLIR

## COCCOCCOCC1(F)CC=C(c2nccc(COc3ccc4cc3C[C@H](C(=O)O)Oc3ncnc5sc(-c6ccc(F)cc6)c(c35)-c3c(C)c(Cl)c(c(Cl)c3C)O[C@H](CN3CCN(C)CC3)CO4)n2)CC1 (single isomer, unassigned) [Example 87, (7R,16R)-19,23-dichloro-10-({2-[(4R*)-4-fluoro-4-{[2-(2-methoxyethoxy)ethoxy]methyl}cyclohex-1-en-1-yl]pyrimidin-4-yl}methoxy)-1-(4-fluorophenyl)-20,22-dimethyl-16-[(4-methylpiperazin-1-yl)methyl]-7,8,15,16-tetrahydro-18,21-etheno-13,9-(metheno)-6,14,17-trioxa-2-thia-3,5-diazacyclononadeca[1,2,3-cd]indene-7-carboxylic Acid]
[1]; [5]
  Ki: 0.068 nM
[1]; [6]
  Ki: 0.004 nM
[2]
  TGD (%): 158* %
  TGImax (%): 99* %
[3]; read-out: H929 Viability IC50 (μM, 10% FBS), 10% FBS, 24 hours of compound treatment
  IC50: 0.000253 µM
[4]; read-out: AMO-1 Viability IC50 (μM, 10% FBS), 10% FBS, 24 hours of compound treatment
  IC50: 0.0959 nM

## COCCOCCOCCN1CCN(C[C@@H]2COc3ccc(OCc4ccnc(-c5ccccc5OC)n4)c(c3)C[C@H](C(=O)O)Oc3ncnc4sc(-c5ccc(F)cc5)c(c34)-c3ccc(c(Cl)c3C)O2)CC1 (atropisomer, axis not shown) [Example 5, (7R,16R,21S)-19-chloro-1-(4-fluorophenyl)-16-[(4-{2-[2-(2-methoxyethoxy)ethoxy]ethyl}piperazin-1-yl)methyl]-10-{[2-(2-methoxyphenyl)pyrimidin-4-yl]methoxy}-20-methyl-7,8,15,16-tetrahydro-18,21-etheno-13,9-(metheno)-6,14,17-trioxa-2-thia-3,5-diazacyclononadeca[1,2,3-cd]indene-7-carboxylic Acid]
[1]; [5]
  Ki: 0.057 nM
[1]; [6]
  Ki: 0.009 nM
[2]
  TGD (%): 17* %
  TGImax (%): 55* %
[3]; [7]
  IC50: 0.008 µM
[4]; [8]
  IC50: 4 nM

## COCCOCCOCCOCCN1CCN(C[C@@H]2COc3ccc(OCc4ccnc(-c5ccccc5OC)n4)c(c3)C[C@H](C(=O)O)Oc3ncnc4sc(-c5ccc(F)cc5)c(c34)-c3ccc(c(Cl)c3C)O2)CC1 (atropisomer, axis not shown) [Example 4, (7R,16R,21S)-19-chloro-1-(4-fluorophenyl)-10-{[2-(2-methoxyphenyl)pyrimidin-4-yl]methoxy}-20-methyl-16-{[4-(2,5,8,11-tetraoxatridecan-13-yl)piperazin-1-yl]methyl}-7,8,15,16-tetrahydro-18,21-etheno-13,9-(metheno)-6,14,17-trioxa-2-thia-3,5-diazacyclononadeca[1,2,3-cd]indene-7-carboxylic Acid]
[1]; [5]
  Ki: 0.052 nM
[1]; [6]
  Ki: 0.007 nM
[2]
  TGD (%): 33* %
  TGImax (%): 54* %
[3]; [7]
  IC50: 0.011 µM
[4]; [8]
  IC50: 7 nM

## COCCOCCOCCOCCOCCOCC1(C)CC=C(c2nccc(COc3ccc4cc3C[C@H](C(=O)O)Oc3ncnc5sc(-c6ccc(F)cc6)c(c35)-c3c(C)c(Cl)c(c(Cl)c3C)O[C@H](CN3CCN(C)CC3)CO4)n2)CC1 (single isomer, unassigned) [Example 84, (7R,16R)-19,23-dichloro-1-(4-fluorophenyl)-10-({2-[(4R*)-4-(2,5,8,11,14,17-hexaoxaoctadecan-1-yl)-4-methylcyclohex-1-en-1-yl]pyrimidin-4-yl}methoxy)-20,22-dimethyl-16-[(4-methylpiperazin-1-yl)methyl]-7,8,15,16-tetrahydro-18,21-etheno-13,9-(metheno)-6,14,17-trioxa-2-thia-3,5-diazacyclononadeca[1,2,3-cd]indene-7-carboxylic Acid]
[1]; [5]
  Ki: 0.232 nM
[1]; [6]
  Ki: 0.033 nM
[2]
  TGD (%): 33* %
  TGImax (%): 71* %
[3]; [7]
  IC50: 0.000528 µM
[4]; [8]
  IC50: 0.175 nM
